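Interpolation was linear, between the two tested concentrations surrounding the appropriate level; five concentrations were tested over 48 hours in 96-well plates. TGI: concentration producing complete growth inhibition.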
Tests used:
Test in all cases: NCI tumour cell line growth inhibition, 48 h
A549 NSCLC = test system: A549 NSCLC
CAKI-1 renal = test system: CAKI-1 renal
CCRF-CEM leukemia = test system: CCRF-CEM leukemia
EKVX NSCLC = test system: EKVX NSCLC
HCC-2998 colon = test system: HCC-2998 colon
NCI-H226 lung = test system: NCI-H226 lung
NCI-H23 lung = test system: NCI-H23 lung
NCI-H460 lung = test system: NCI-H460 lung
NCI-H522 lung = test system: NCI-H522 lung
NCI/ADR-RES ovarian = test system: NCI/ADR-RES ovarian
OVCAR-4 ovarian = test system: OVCAR-4 ovarian
OVCAR-5 ovarian = test system: OVCAR-5 ovarian
PC-3 prostate = test system: PC-3 prostate
RPMI-8226 leukemia = test system: RPMI-8226 leukemia
SF-295 CNS = test system: SF-295 CNS
SF-539 CNS = test system: SF-539 CNS
SN12C renal = test system: SN12C renal
SNB-75 CNS = test system: SNB-75 CNS
SR leukemia = test system: SR leukemia
TK-10 renal = test system: TK-10 renal

Row | Structure (SMILES) | TGI (A549 NSCLC) [µM] | TGI (CAKI-1 renal) [µM] | TGI (CCRF-CEM leukemia) [µM] | TGI (EKVX NSCLC) [µM] | TGI (HCC-2998 colon) [µM] | TGI (NCI-H226 lung) [µM] | TGI (NCI-H23 lung) [µM] | TGI (NCI-H460 lung) [µM] | TGI (NCI-H522 lung) [µM] | TGI (NCI/ADR-RES ovarian) [µM] | TGI (OVCAR-4 ovarian) [µM] | TGI (OVCAR-5 ovarian) [µM] | TGI (PC-3 prostate) [µM] | TGI (RPMI-8226 leukemia) [µM] | TGI (SF-295 CNS) [µM] | TGI (SF-539 CNS) [µM] | TGI (SN12C renal) [µM] | TGI (SNB-75 CNS) [µM] | TGI (SR leukemia) [µM] | TGI (TK-10 renal) [µM]
1 | CCOC(=O)c1cc(Br)c(-c2onc(C)c2Br)n1C | 64.2 | 45.4 | > 100 | 85.6 | > 100 | > 100 | > 100 | > 100 | 72.7 | > 100 | > 100 | 68.8 | > 100 | > 100 | 76.2 | > 100 | 56.8 | 53 | 92.9 | > 100
2 | COc1ccc(C(c2ccc3c(c2)OCO3)N2C(=O)CCC2C(=O)O)cc1 (stereo not given) | > 100 | > 100 | > 100 | > 100 | > 100 | > 100 | > 100 | > 100 | > 100 | > 100 | > 100 | > 100 | > 100 | > 100 | > 100 | > 100 | > 100 | > 100 | > 100 | > 100
3 | O=C(/C=C/c1ccc2c(c1)OCO2)CC(=O)/C=C/c1ccc2c(c1)OCO2 | > 100 | > 100 | > 100 | > 100 | > 100 | > 100 | > 100 | > 100 | > 100 | > 100 | 68.5 | > 100 | > 100 | > 100 | > 100 | > 100 | > 100 | > 100 | 79.8 | > 100
4 | O=C(c1ccccc1)C1C[C@H]2CO[C@H](c3ccccc3)N2C1=O (stereo not given in full) | > 100 | > 100 | > 100 | > 100 | > 100 | > 100 | > 100 | > 100 | > 100 | > 100 | > 100 | > 100 | > 100 | > 100 | > 100 | > 100 | > 100 | > 100 | > 100 | > 100
5 | CCOC(=O)c1cc(C#N)[nH]c1-c1ccsc1 | > 100 | > 100 | 69.3 | 84 | > 100 | > 100 | > 100 | > 100 | 90.2 | 94.9 | > 100 | > 100 | 70.4 | 65.6 | > 100 | 77.1 | > 100 | 97.4 | 35.5 | > 100
